# What was measured:
# Type in all cases: functional
# [1] = tested on: M14; experiment: Growth inhibition of human M14 cells after 48 hrs by SRB protein assay; settings: M14, 48 h
# [2] = tested on: SK-MEL-28; experiment: Growth inhibition of human SK-MEL-28 cells after 48 hrs by SRB protein assay; settings: SK-MEL-28, 48 h
# [3] = tested on: OVCAR-3; experiment: Growth inhibition of human OVCAR-3 cells after 48 hrs by SRB protein assay; settings: OVCAR-3, 48 h
# [4] = tested on: OVCAR-4; experiment: Growth inhibition of human OVCAR4 cells after 48 hrs by SRB protein assay; settings: OVCAR-4, 48 h
# [5] = tested on: OVCAR-5; experiment: Growth inhibition of human OVCAR5 cells after 48 hrs by SRB protein assay; settings: OVCAR-5, 48 h; for CC50: read-out: LC50 (the source's name)
# [6] = tested on: MCF7; experiment: Anticancer activity against human MCF7 cells assessed as growth at 100 uM after 48 hrs by SRB protein assay relative to control; settings: MCF7, 48 h, read-out: Activity
# [7] = tested on: SF-268; experiment: Anticancer activity against human SF268 cells assessed as growth at 100 uM after 48 hrs by SRB protein assay relative to control; settings: SF-268, 48 h, read-out: Activity
# [8] = tested on: A549; experiment: Growth inhibition of human A549 cells after 48 hrs by SRB protein assay; settings: A549, 48 h
# [9] = tested on: NCI-H460; experiment: Growth inhibition of human NCL-H460 cells after 48 hrs by SRB protein assay; settings: NCI-H460, 48 h; for CC50: read-out: LC50 (the source's name)
# [10] = tested on: HCT-15; experiment: Growth inhibition of human HCT15 cells after 48 hrs by SRB protein assay; settings: HCT-15, 48 h
# [11] = tested on: KM12; experiment: Growth inhibition of human KM12 cells after 48 hrs by SRB protein assay; settings: KM12, 48 h
# [12] = tested on: SW-620; experiment: Growth inhibition of human SW620 cells after 48 hrs by SRB protein assay; settings: SW-620, 48 h; for CC50: read-out: LC50 (the source's name)
# [13] = tested on: SF-268; experiment: Growth inhibition of human SF268 cells after 48 hrs by SRB protein assay; settings: SF-268, 48 h
# [14] = tested on: SNB-19; experiment: Growth inhibition of human SNB19 cells after 48 hrs by SRB protein assay; settings: SNB-19, 48 h; for CC50: read-out: LC50 (the source's name)
# [15] = tested on: OVCAR-8; experiment: Growth inhibition of human OVCAR8 cells after 48 hrs by SRB protein assay; settings: OVCAR-8, 48 h
# [16] = tested on: 786-0; experiment: Growth inhibition of human 786-0 cells after 48 hrs by SRB protein assay; settings: 786-0, 48 h; for CC50: read-out: LC50 (the source's name)
# [17] = tested on: ACHN; experiment: Growth inhibition of human ACHN cells after 48 hrs by SRB protein assay
# [18] = tested on: RXF 393; experiment: Growth inhibition of human RXF393 cells after 48 hrs by SRB protein assay; settings: RXF 393, 48 h; for CC50: read-out: LC50 (the source's name)
# [19] = tested on: TK-10; experiment: Growth inhibition of human TK10 cells after 48 hrs by SRB protein assay; settings: TK-10, 48 h
# [20] = tested on: UO-31; experiment: Growth inhibition of human UO31 cells after 48 hrs by SRB protein assay; settings: UO-31, 48 h
# [21] = tested on: PC-3; experiment: Growth inhibition of human PC3 cells after 48 hrs by SRB protein assay; settings: PC-3, 48 h; for CC50: read-out: LC50 (the source's name)
# [22] = tested on: DU-145; experiment: Growth inhibition of human DU145 cells after 48 hrs by SRB protein assay; settings: DU-145, 48 h; for CC50: read-out: LC50 (the source's name)
# [23] = tested on: MCF7; experiment: Growth inhibition of human MCF7 cells after 48 hrs by SRB protein assay; settings: MCF7, 48 h
# [24] = tested on: NCI/ADR-RES; experiment: Growth inhibition of human NCI/ADR-RES cells after 48 hrs by SRB protein assay
# [25] = tested on: MDA-MB-231; experiment: Growth inhibition of human MDA-MB-231 cells after 48 hrs by SRB protein assay; settings: MDA-MB-231, 48 h
# [26] = tested on: SK-OV-3; experiment: Growth inhibition of human SK-OV-3 cells after 48 hrs by SRB protein assay; settings: SK-OV-3, 48 h
smiles,measurement,setting,value
Clc1nc(Cl)c2ncn(Cc3ccc(Cn4cnc5c(Cl)nc(Cl)nc54)cc3)c2n1,LC50,[1],52.5 µM
same,TGI,[1],27.5 µM
same,GI50,[2],< 0.01 µM
same,LC50,[2],42.6 µM
same,TGI,[2],18.2 µM
same,GI50,[3],13.5 µM
same,LC50,[3],51.3 µM
same,TGI,[3],26.3 µM
same,GI50,[4],14.3 µM
same,LC50,[4],52.5 µM
same,TGI,[4],27.5 µM
same,TGI,[5],26.3 µM
same,CC50,[5],51.3 µM
same,growth at 100 µM,[6],0%
same,growth at 100 µM,[7],58%
same,LC50,[8],50.1 µM
same,TGI,[8],25.1 µM
same,GI50,[9],14.1 µM
same,TGI,[9],26.9 µM
same,CC50,[9],52.5 µM
same,GI50,[10],13.2 µM
same,LC50,[10],51.3 µM
same,TGI,[10],25.7 µM
same,GI50,[11],14.1 µM
same,LC50 (concentration killing 50% of cells),[11],52.5 µM
same,TGI,[11],27.5 µM
same,GI50,[12],< 0.01 µM
same,TGI,[12],2.63 µM
same,CC50,[12],8.31 µM
same,GI50,[13],15.5 µM
same,LC50,[13],> 100 µM
same,TGI,[13],38.9 µM
same,TGI,[14],21.9 µM
same,CC50,[14],46.8 µM
same,GI50,[15],3.02 µM
same,LC50,[15],49 µM
same,TGI,[15],8.13 µM
same,GI50,[16],14.5 µM
same,TGI,[16],27.5 µM
same,CC50,[16],52.5 µM
same,GI50,[17],12.6 µM
same,LC50,[17],50.1 µM
same,TGI,[17],25.1 µM
same,GI50,[18],< 0.01 µM
same,CC50,[18],20.9 µM
same,GI50,[19],13.2 µM
same,LC50 (50% lethal concentration),[19],51.3 µM
same,TGI,[19],26.3 µM
same,GI50,[20],10 µM
same,LC50,[20],46.8 µM
same,TGI,[20],21.4 µM
same,GI50,[21],12.9 µM
same,TGI,[21],25.7 µM
same,CC50,[21],50.1 µM
same,GI50,[22],< 0.01 µM
same,TGI,[22],4.16 µM
same,CC50,[22],26.3 µM
same,GI50,[23],10.5 µM
same,LC50,[23],61.7 µM
same,TGI,[23],25.1 µM
same,GI50,[24],13.8 µM
same,LC50,[24],60.2 µM
same,TGI,[24],28.8 µM
same,LC50 (50% lethal concentration),[25],46.8 µM
same,TGI,[25],21.9 µM
Clc1nc(Cl)c2ncn(Cc3ccccc3Cn3cnc4c(Cl)nc(Cl)nc43)c2n1,GI50,[1],15.8 µM
same,LC50,[1],61.7 µM
same,TGI,[1],38.9 µM
same,GI50,[2],3.98 µM
same,LC50,[2],> 100 µM
same,TGI,[2],24.6 µM
same,GI50,[3],1.66 µM
same,LC50,[3],5.5 µM
same,TGI,[3],3.02 µM
same,GI50,[4],2.09 µM
same,LC50,[4],8.71 µM
same,TGI,[4],4.23 µM
same,GI50,[5],20.9 µM
same,TGI,[5],38 µM
same,CC50,[5],70.8 µM
same,growth at 100 µM,[6],0%
same,growth at 100 µM,[7],0%
same,GI50,[8],4.79 µM
same,LC50,[8],> 100 µM
same,TGI,[8],20.4 µM
same,GI50,[9],3.98 µM
same,TGI,[9],17.4 µM
same,CC50,[9],89.1 µM
same,GI50,[10],1.86 µM
same,LC50,[10],12.6 µM
same,TGI,[10],4.47 µM
same,GI50,[11],3.31 µM
same,LC50 (concentration killing 50% of cells),[11],34.7 µM
same,TGI,[11],10 µM
same,GI50,[12],1.86 µM
same,TGI,[12],3.98 µM
same,CC50,[12],8.32 µM
same,GI50,[13],6.76 µM
same,LC50,[13],95.5 µM
same,TGI,[13],26.9 µM
same,GI50,[14],3.98 µM
same,TGI,[14],> 100 µM
same,CC50,[14],> 100 µM
same,GI50,[15],3.02 µM
same,LC50,[15],49 µM
same,TGI,[15],8.13 µM
same,GI50,[26],11.5 µM
same,TGI,[26],31.6 µM
same,CC50,[26]; read-out: LC50 (the source's name),87.1 µM
same,GI50,[16],10 µM
same,TGI,[16],25.1 µM
same,CC50,[16],63.1 µM
same,GI50,[17],1.77 µM
same,LC50,[17],5.75 µM
same,TGI,[17],3.24 µM
same,TGI,[18],3.47 µM
same,CC50,[18],7.08 µM
same,GI50,[19],2.69 µM
same,LC50 (50% lethal concentration),[19],28.8 µM
same,TGI,[19],7.94 µM
same,GI50,[20],1.95 µM
same,LC50,[20],7.41 µM
same,TGI,[20],3.8 µM
same,GI50,[21],2.24 µM
same,TGI,[21],6.76 µM
same,CC50,[21],38.9 µM
same,GI50,[22],1 µM
same,TGI,[22],2.51 µM
same,CC50,[22],6.46 µM
same,GI50,[23],1.55 µM
same,LC50,[23],> 100 µM
same,TGI,[23],4.57 µM
same,GI50,[24],20.4 µM
same,LC50,[24],91.2 µM
same,TGI,[24],43.6 µM
same,GI50,[25],1.82 µM
same,LC50 (50% lethal concentration),[25],6.46 µM
same,TGI,[25],3.39 µM
Clc1nc(Cl)c2ncn(Cc3cccc(Cn4cnc5c(Cl)nc(Cl)nc54)c3)c2n1,GI50,[1],2.75 µM
same,LC50,[1],33.9 µM
same,TGI,[1],7.58 µM
same,GI50,[2],4.26 µM
same,LC50,[2],> 100 µM
same,TGI,[2],22.4 µM
same,GI50,[3],2.39 µM
same,LC50,[3],28.2 µM
same,TGI,[3],7.24 µM
same,GI50,[4],15.1 µM
same,LC50,[4],55 µM
same,TGI,[4],28.8 µM
same,GI50,[5],20.9 µM
same,TGI,[5],38 µM
same,CC50,[5],70.8 µM
same,growth at 100 µM,[6],0%
same,growth at 100 µM,[7],0%
same,GI50,[8],11.2 µM
same,LC50,[8],61.6 µM
same,TGI,[8],26.3 µM
same,GI50,[9],3.71 µM
same,TGI,[9],13.5 µM
same,CC50,[9],58.9 µM
same,GI50,[10],5.75 µM
same,LC50,[10],74.1 µM
same,TGI,[10],22.4 µM
same,GI50,[11],2.88 µM
same,LC50 (concentration killing 50% of cells),[11],33.1 µM
same,TGI,[11],8.91 µM
same,GI50,[12],1.82 µM
same,TGI,[12],3.31 µM
same,CC50,[12],6.16 µM
same,GI50,[13],12.9 µM
same,LC50,[13],75.9 µM
same,TGI,[13],31.6 µM
same,GI50,[14],3.02 µM
same,TGI,[14],13.8 µM
same,CC50,[14],60.2 µM
same,GI50,[15],4.67 µM
same,LC50,[15],72.4 µM
same,TGI,[15],18.6 µM
same,GI50,[16],12.3 µM
same,TGI,[16],26.3 µM
same,CC50,[16],57.5 µM
same,GI50,[17],2.51 µM
same,LC50,[17],21.4 µM
same,TGI,[17],6.16 µM
same,GI50,[18],1.9 µM
same,TGI,[18],3.71 µM
same,CC50,[18],7.24 µM
same,GI50,[19],2.45 µM
same,LC50 (50% lethal concentration),[19],26.9 µM
same,TGI,[19],7.24 µM
same,GI50,[20],1.9 µM
same,LC50,[20],6.6 µM
same,TGI,[20],3.54 µM
same,GI50,[21],3.98 µM
same,TGI,[21],13.5 µM
same,CC50,[21],40.7 µM
same,GI50,[22],1.73 µM
same,TGI,[22],3.09 µM
same,CC50,[22],5.62 µM
same,GI50,[23],3.63 µM
same,LC50,[23],> 100 µM
same,TGI,[23],37.1 µM
same,GI50,[24],12.6 µM
same,LC50,[24],97.7 µM
same,TGI,[24],34.7 µM
same,GI50,[25],2.63 µM
same,LC50 (50% lethal concentration),[25],30.2 µM
same,TGI,[25],7.07 µM

# Reference: ChEMBL document CHEMBL1143809, “New bis-N9-(methylphenylmethyl)purine derivatives: synthesis and antitumor activity” (2007)
